Values joined by “and” are separate entries in the source; they are usually repeats but may differ in a detail not shown here. Identical values can stand only once. Toxic doses and inconclusive results are not listed. The calls were made as follows: active = survival T/C of 150% or more; inactive = T/C below 125% in these data.
System: P388 leukemia ip, CD2F1 mice, survival T/C
Assay: NCI In Vivo Anticancer Drug Screen. Data for tumor model P388 Leukemia (intraperitoneal) in CD2F1 (CDF1) mice
Settings: endpoint: median survival time, higher = longer survival
Summary of the method: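 Mice carrying the transplanted tumor received test compound or vehicle. Survival was recorded in each group, and the value is the treated-group measurement divided by that of the vehicle-treated control group.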

[1] = dose: 12.5 mg/kg/injection, schedule: Q04DX003 (ip), vehicle: saline
[2] = dose: 25.0 mg/kg/injection, schedule: Q04DX003 (ip), vehicle: saline
[3] = dose: 50.0 mg/kg/injection, schedule: Q04DX003 (ip), vehicle: saline
[4] = dose: 50.0 mg/kg/injection, schedule: Q04DX002 (ip), vehicle: saline
[5] = dose: 100.0 mg/kg/injection, schedule: Q04DX002 (ip), vehicle: saline
[6] = dose: 200.0 mg/kg/injection, schedule: Q04DX002 (ip), vehicle: saline
[7] = dose: 100.0 mg/kg/injection, schedule: Q01DX009 (ip), vehicle: saline
[8] = dose: 200.0 mg/kg/injection, schedule: Q01DX009 (ip), vehicle: saline
[9] = dose: 50.0 mg/kg/injection, schedule: Q01DX009 (ip), vehicle: saline
[10] = dose: 50.0 mg/kg/injection, schedule: Q01DX009 (ip), vehicle: saline with Tween-80
[11] = dose: 100.0 mg/kg/injection, schedule: Q01DX009 (ip), vehicle: saline with Tween-80
[12] = dose: 12.5 mg/kg/injection, schedule: Q01DX009 (ip), vehicle: saline with Tween-80
[13] = dose: 25.0 mg/kg/injection, schedule: Q01DX009 (ip), vehicle: saline with Tween-80

Measured: T/C

COC(=O)C(C)CN1CCCC1 (centres undefined)
inactive: [1] 100 % of control | [2] 100 % of control | [3] 100 % of control

C=CC1=C(C)c2cc3[n-]c(c(CC(=O)O)c4nc(cc5[n-]c(cc1n2)c(C)c5CC)C(C)=C4C(=O)O)C(CCC(=O)O)C3C.[Pt+2] (centres undefined)
inactive: dose: 25.0 mg/kg/injection, schedule: Q04DX002 (ip), vehicle: saline 96 % of control | [4] 99 % of control | [5] 97 % of control | [6] 88 % of control | dose: 400.0 mg/kg/injection, schedule: Q04DX002 (ip), vehicle: saline 90 % of control

OCCO
inactive: [7] 86 % of control and 90 % of control | [8] 100 % of control and 86 % of control | dose: 400.0 mg/kg/injection, schedule: Q01DX009 (ip), vehicle: saline 104 % of control and 100 % of control | dose: 0.5 % in 0.5 ml injection vol, schedule: Q01DX009 (ip), vehicle: water 98 % of control | dose: 1.0 % in 0.5 ml injection vol, schedule: Q01DX009 (ip), vehicle: water 99 % of control and 107 % of control | dose: 2.0 % in 0.5 ml injection vol, schedule: Q01DX009 (ip), vehicle: water 100 % of control and 102 % of control | dose: 2.5 % in 0.5 ml injection vol, schedule: Q01DX009 (ip), vehicle: water 106 % of control | dose: 4.0 % in 0.5 ml injection vol, schedule: Q01DX009 (ip), vehicle: water 94 % of control | dose: 5.0 % in 0.5 ml injection vol, schedule: Q01DX009 (ip), vehicle: water 105 % of control | dose: 10.0 % in 0.5 ml injection vol, schedule: Q01DX009 (ip), vehicle: water 103 % of control | dose: 20.0 % in 0.5 ml injection vol, schedule: Q01DX009 (ip), vehicle: water 108 % of control | dose: 40.0 % in 0.5 ml injection vol, schedule: Q01DX009 (ip), vehicle: water 100 % of control | dose: 50.0 % in 0.5 ml injection vol, schedule: Q01DX009 (ip), vehicle: water 107 % of control | dose: 80.0 % in 0.5 ml injection vol, schedule: Q01DX009 (ip), vehicle: water 100 % of control

O=C(O)C1=C(C(=O)Nc2ccc(NC(=O)C3=C(C(=O)O)CCC3)cc2)CCC1
inactive: dose: 12.5 mg/kg/injection, schedule: Q01DX009 (ip), vehicle: distilled water + Tween-80 93 % of control | dose: 25.0 mg/kg/injection, schedule: Q01DX009 (ip), vehicle: distilled water + Tween-80 98 % of control | dose: 50.0 mg/kg/injection, schedule: Q01DX009 (ip), vehicle: distilled water + Tween-80 97 % of control | dose: 100.0 mg/kg/injection, schedule: Q01DX009 (ip), vehicle: distilled water + Tween-80 105 % of control | dose: 200.0 mg/kg/injection, schedule: Q01DX009 (ip), vehicle: distilled water + Tween-80 115 % of control

CCN(C)c1nc(N(C)C)nc(N(C)C)n1
inactive: dose: 50.0 mg/kg/injection, schedule: Q04DX002 (ip), vehicle: saline with Tween-80 100 % of control | [4] 109 % of control | dose: 100.0 mg/kg/injection, schedule: Q04DX002 (ip), vehicle: saline with Tween-80 107 % of control | [5] 110 % of control | dose: 200.0 mg/kg/injection, schedule: Q04DX002 (ip), vehicle: saline with Tween-80 100 % of control | [6] 109 % of control

Clc1ccc2c3c([nH]c2c1)CCc1cncnc1-3
inactive: dose: 100.0 mg/kg/injection, schedule: Q01DX001 (ip), vehicle: Klucel (hydroxypropylcellulose) (HPC) 93 % of control | dose: 200.0 mg/kg/injection, schedule: Q01DX001 (ip), vehicle: Klucel (hydroxypropylcellulose) (HPC) 90 % of control | dose: 400.0 mg/kg/injection, schedule: Q01DX001 (ip), vehicle: Klucel (hydroxypropylcellulose) (HPC) 90 % of control

O=c1c2ccccc2nc2n1OCC2
inactive: [9] 103 % of control | [7] 111 % of control | [8] 111 % of control

CCC(=O)Nc1ccc(N=NN(C)C)cc1
inactive: dose: 6.25 mg/kg/injection, schedule: Q04DX002 (ip), vehicle: Klucel (hydroxypropylcellulose) (HPC) 97 % of control | dose: 12.5 mg/kg/injection, schedule: Q04DX002 (ip), vehicle: Klucel (hydroxypropylcellulose) (HPC) 106 % of control | dose: 25.0 mg/kg/injection, schedule: Q04DX002 (ip), vehicle: Klucel (hydroxypropylcellulose) (HPC) 100 % of control and 109 % of control

CN(C)c1ccc(/C=C/c2cc[n+](C)cc2)cc1
inactive: dose: 2.0 mg/kg/injection, schedule: Q01DX009 (ip), vehicle: saline with Tween-80 110 % of control | dose: 2.0 mg/kg/injection, schedule: Q04DX003 (ip), vehicle: saline with Tween-80 91 % of control | dose: 4.0 mg/kg/injection, schedule: Q01DX009 (ip), vehicle: saline with Tween-80 100 % of control | dose: 4.0 mg/kg/injection, schedule: Q04DX003 (ip), vehicle: saline with Tween-80 100 % of control | dose: 8.0 mg/kg/injection, schedule: Q01DX009 (ip), vehicle: saline with Tween-80 100 % of control | dose: 8.0 mg/kg/injection, schedule: Q04DX003 (ip), vehicle: saline with Tween-80 108 % of control

OC1(CC2CO2)CCCc2ccccc21 (centres undefined)
inactive: dose: 50.0 mg/kg/injection, schedule: Q01DX009 (ip), vehicle: Klucel (hydroxypropylcellulose) (HPC) 93 % of control | dose: 100.0 mg/kg/injection, schedule: Q01DX009 (ip), vehicle: Klucel (hydroxypropylcellulose) (HPC) 91 % of control | dose: 200.0 mg/kg/injection, schedule: Q01DX009 (ip), vehicle: Klucel (hydroxypropylcellulose) (HPC) 93 % of control

O=C(O)c1c2ccccc2nc2[nH]c(=O)[nH]c(=O)c12
inactive: dose: 50.0 mg/kg/injection, schedule: Q01DX005 (ip), vehicle: Klucel (hydroxypropylcellulose) (HPC) 114 % of control and 95 % of control | dose: 50.0 mg/kg/injection, schedule: Q01DX005 (ip), vehicle: Klucel + Tween-80 117 % of control | dose: 100.0 mg/kg/injection, schedule: Q01DX005 (ip), vehicle: Klucel (hydroxypropylcellulose) (HPC) 107 % of control and 95 % of control | dose: 100.0 mg/kg/injection, schedule: Q01DX005 (ip), vehicle: Klucel + Tween-80 107 % of control | dose: 200.0 mg/kg/injection, schedule: Q01DX005 (ip), vehicle: Klucel (hydroxypropylcellulose) (HPC) 114 % of control | dose: 200.0 mg/kg/injection, schedule: Q01DX005 (ip), vehicle: Klucel + Tween-80 117 % of control

C=C(C)[Se]c1ccccc1
inactive: [10] 100 % of control and 118 % of control | [11] 101 % of control and 121 % of control

O=C(O)CCCOC(C[N+](=O)[O-])C(Cl)(Cl)Cl (centres undefined)
inactive: [10] 95 % of control | [11] 100 % of control | dose: 200.0 mg/kg/injection, schedule: Q01DX009 (ip), vehicle: saline with Tween-80 96 % of control

CCOC(=O)C1Cc2nc(-c3ccccc3)ncc2C1=O (centres undefined)
inactive: [12] 107 % of control | [13] 107 % of control | [10] 101 % of control

CON(C)CC(Cl)c1ccccc1 (centres undefined)
inactive: [12] 109 % of control | [13] 109 % of control | [10] 104 % of control

CC1CN1P(=O)(OCCCl)N1CC1C (centres undefined)
inactive: dose: 44.0 mg/kg/injection, schedule: Q04DX003 (ip), vehicle: saline 113 % of control | [9] 120 % of control | dose: 66.0 mg/kg/injection, schedule: Q04DX003 (ip), vehicle: saline 113 % of control | [7] 120 % of control | dose: 100.0 mg/kg/injection, schedule: Q04DX003 (ip), vehicle: saline 118 % of control | dose: 150.0 mg/kg/injection, schedule: Q04DX003 (ip), vehicle: saline 86 % of control

O=P(O)(O)CCCNO
inactive: dose: 60.0 mg/kg/injection, schedule: Q01DX005 (ip), vehicle: saline 95 % of control | dose: 120.0 mg/kg/injection, schedule: Q01DX005 (ip), vehicle: saline 91 % of control | dose: 240.0 mg/kg/injection, schedule: Q01DX005 (ip), vehicle: saline 90 % of control

O=S1(=O)OCCCO1
inactive: dose: 12.5 mg/kg/injection, schedule: Q01DX005 (ip), vehicle: saline 109 % of control | dose: 25.0 mg/kg/injection, schedule: Q01DX005 (ip), vehicle: saline 98 % of control | dose: 50.0 mg/kg/injection, schedule: Q01DX005 (ip), vehicle: saline 124 % of control

CSc1nc2cc(Cl)ccc2c2c1C=NCCN2
inactive: [1] 97 % of control | [2] 96 % of control | [3] 103 % of control | dose: 50.0 mg/kg/injection, schedule: Q04DX003 (ip), vehicle: suspension in saline 103 % of control

Source: PubChem BioAssay AID330 (DTP/NCI, 2004)
